Columns and labels:
Type in all cases: in vivo
[1] = system: rice (Oryza sativa); test: Test B flooded paddy test; details: for Plant response rating, Flood, Rice: 250 g ai/ha, flooded paddy test, visual rating on 0 to 100 scale (0 no effect, 100 complete control) after 13 to 15 days; for Plant response rating, Rice: Flood (flooded paddy test), 13 to 15 days; for Rice plant response rating: Flood, 31 g ai/ha, scale 0 to 100 (0 no effect, 100 complete control)
Summary of the method: (§1)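 Visual scores run from 0 (no effect) to 100 (complete control), assigned by comparison with controls 13 to 15 days after treatment. Test compounds went straight into water standing 3 cm above the soil, around plants at the 2-leaf stage kept in a greenhouse.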

[2] = system: umbrella sedge (Cyperus difformis); test: Test B flooded paddy test; details: for Plant response rating, Flood, Sedge, Umbrella: 250 g ai/ha, flooded paddy test, visual rating on 0 to 100 scale (0 no effect, 100 complete control) after 13 to 15 days; for Plant response rating, Sedge, Umbrella: Flood (flooded paddy test), 13 to 15 days; for Sedge, Umbrella plant response rating: Flood, 31 g ai/ha, scale 0 to 100 (0 no effect, 100 complete control)
Summary of the method: as §1

[3] = system: ducksalad (Heteranthera limosa); test: Test B flooded paddy test; details: for Plant response rating, Flood, Ducksalad: 250 g ai/ha, flooded paddy test, visual rating on 0 to 100 scale (0 no effect, 100 complete control) after 13 to 15 days; for Plant response rating, Ducksalad: Flood (flooded paddy test), 13 to 15 days; for Ducksalad plant response rating: Flood, 31 g ai/ha, scale 0 to 100 (0 no effect, 100 complete control)
Summary of the method: as §1

[4] = system: barnyardgrass (Echinochloa crus-galli); test: Test B flooded paddy test; details: for Plant response rating, Flood, Barnyardgrass: 250 g ai/ha, flooded paddy test, visual rating on 0 to 100 scale (0 no effect, 100 complete control) after 13 to 15 days; for Plant response rating, Barnyardgrass: Flood (flooded paddy test), 13 to 15 days; for Barnyardgrass plant response rating: Flood, 31 g ai/ha, scale 0 to 100 (0 no effect, 100 complete control)
Summary of the method: as §1

[5] = system: pigweed (Amaranthus retroflexus); test: Test A pre-/postemergence plant response
Summary of the method: (§2)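 Greenhouse pots of loam/sand received directed preemergence soil sprays or postemergence sprays (plants 2–10 cm, 1–2 leaf stage), compounds formulated in non-phytotoxic solvent with surfactant. Injury was rated visually versus untreated controls after about ten days on a 0 (no effect) to 100 (complete control) scale.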

[6] = system: velvetleaf (Abutilon theophrasti); test: Test A pre-/postemergence plant response
Summary of the method: as §2

[7] = system: giant foxtail (Setaria faberii); test: Test A pre-/postemergence plant response
Summary of the method: as §2

[8] = system: wheat (Triticum aestivum); test: Test A pre-/postemergence plant response
Summary of the method: as §2

[9] = system: corn (Zea mays); test: Test A pre-/postemergence plant response
Summary of the method: as §2

[10] = system: barnyardgrass (Echinochloa crus-galli); test: Test A pre-/postemergence plant response
Summary of the method: as §2

[11] = system: large crabgrass (Digitaria sanguinalis); test: Test A pre-/postemergence plant response
Summary of the method: as §2

[12] = system: morningglory (Ipomoea spp.); test: Test A pre-/postemergence plant response
Summary of the method: as §2

[13] = 62 g ai/ha, scale of 0 to 100 where 0 is no effect and 100 is complete control
[14] = 125 g ai/ha, scale 0 to 100, 0 is no effect, 100 is complete control
[15] = Postemergence, 125 g ai/ha, 0 to 100 scale where 0 is no effect and 100 is complete control
[16] = Postemergence, 500 g ai/ha, 0 to 100 scale, 0 = no effect, 100 = complete control, approx. ten days
[17] = Preemergence, 125 g ai/ha, 0 to 100 scale, 0 = no effect, 100 = complete control
[18] = Preemergence, 500 g ai/ha, visual injury, 0 to 100 scale (0 no effect, 100 complete control), approx. ten days

CCCCn1c(-c2cccc(F)c2)ncc(C(=O)C2=C(O)CCCC2=O)c1=O [Compound 125]
25: Sedge, Umbrella plant response rating [2] | Plant response rating, Barnyardgrass [4, 13]
60: Plant response rating, Ducksalad [3, 14] | Plant response rating, Flood, Barnyardgrass [4] | Plant response rating, Velvetleaf [6, 17]
20: Ducksalad plant response rating [3] | Plant response rating, Corn [9, 16]
10: Plant response rating, Wheat [8, 16] | Plant response rating, Barnyardgrass [10, 17]
0: Plant response rating, Flood, Rice [1] | Plant response rating, Rice [1, 13] | Plant response rating, Rice [1, 14] | Rice plant response rating [1] | Barnyardgrass plant response rating [4] | Plant response rating, Wheat [8, 15] | Plant response rating, Wheat [8, 17] | Plant response rating, Wheat [8, 18] | Plant response rating, Corn [9, 15] | Plant response rating, Corn [9, 17] | Plant response rating, Corn [9, 18] | Plant response rating, Morningglory [12, 17] | Plant response rating, Morningglory [12, 18]
90: Plant response rating, Flood, Sedge, Umbrella [2] | Plant response rating, Sedge, Umbrella [2, 14] | Plant response rating, Pigweed [5, 15] | Plant response rating, Pigweed [5, 17] | Plant response rating, Pigweed [5, 18] | Plant response rating, Foxtail, Giant [7, 16] | Plant response rating, Barnyardgrass [10, 16] | Plant response rating, Barnyardgrass [10, 18] | Plant response rating, Crabgrass, Large [11, 16]
70: Plant response rating, Flood, Ducksalad [3] | Plant response rating, Foxtail, Giant [7, 15] | Plant response rating, Barnyardgrass [10, 15] | Plant response rating, Crabgrass, Large [11, 15]
40: Plant response rating, Ducksalad [3, 13] | Plant response rating, Barnyardgrass [4, 14] | Plant response rating, Foxtail, Giant [7, 17]
35: Plant response rating, Sedge, Umbrella [2, 13]
80: Plant response rating, Foxtail, Giant [7, 18] | Plant response rating, Crabgrass, Large [11, 17] | Plant response rating, Morningglory [12, 15] | Plant response rating, Morningglory [12, 16]
100: Plant response rating, Pigweed [5, 16] | Plant response rating, Velvetleaf [6, 15] | Plant response rating, Velvetleaf [6, 16] | Plant response rating, Velvetleaf [6, 18] | Plant response rating, Crabgrass, Large [11, 18]

Cc1cc(-n2c(-c3cccc(Cl)c3)ncc(C(=O)C3=C(O)CCCC3=O)c2=O)ccc1F [Compound 133]
10: Plant response rating, Corn [9, 15] | Plant response rating, Barnyardgrass [10, 17]
60: Plant response rating, Sedge, Umbrella [2, 13] | Plant response rating, Ducksalad [3, 13] | Ducksalad plant response rating [3]
90: Plant response rating, Foxtail, Giant [7, 16] | Plant response rating, Barnyardgrass [10, 16]
20: Plant response rating, Foxtail, Giant [7, 15] | Plant response rating, Wheat [8, 15] | Plant response rating, Wheat [8, 18] | Plant response rating, Corn [9, 18] | Plant response rating, Barnyardgrass [10, 15]
0: Plant response rating, Flood, Rice [1] | Plant response rating, Rice [1, 13] | Plant response rating, Rice [1, 14] | Rice plant response rating [1] | Sedge, Umbrella plant response rating [2] | Plant response rating, Flood, Barnyardgrass [4] | Plant response rating, Barnyardgrass [4, 13] | Plant response rating, Barnyardgrass [4, 14] | Barnyardgrass plant response rating [4] | Plant response rating, Wheat [8, 17] | Plant response rating, Corn [9, 17] | Plant response rating, Morningglory [12, 17] | Plant response rating, Morningglory [12, 18]
100: Plant response rating, Flood, Sedge, Umbrella [2] | Plant response rating, Flood, Ducksalad [3] | Plant response rating, Ducksalad [3, 14] | Plant response rating, Pigweed [5, 16] | Plant response rating, Pigweed [5, 18] | Plant response rating, Velvetleaf [6, 15] | Plant response rating, Velvetleaf [6, 16] | Plant response rating, Velvetleaf [6, 18] | Plant response rating, Barnyardgrass [10, 18] | Plant response rating, Crabgrass, Large [11, 16] | Plant response rating, Crabgrass, Large [11, 18]
50: Plant response rating, Velvetleaf [6, 17] | Plant response rating, Crabgrass, Large [11, 17]
95: Plant response rating, Sedge, Umbrella [2, 14]
80: Plant response rating, Pigweed [5, 15] | Plant response rating, Foxtail, Giant [7, 18]
70: Plant response rating, Morningglory [12, 16]
40: Plant response rating, Pigweed [5, 17] | Plant response rating, Foxtail, Giant [7, 17] | Plant response rating, Wheat [8, 16] | Plant response rating, Corn [9, 16] | Plant response rating, Crabgrass, Large [11, 15] | Plant response rating, Morningglory [12, 15]

CCCCn1c(-c2cccc(Br)c2)ncc(C(=O)C2=C(O)CCCC2=O)c1=O [Compound 138]
60: Plant response rating, Foxtail, Giant [7, 15]
0: Plant response rating, Rice [1, 13] | Plant response rating, Barnyardgrass [4, 13] | Plant response rating, Wheat [8, 15] | Plant response rating, Wheat [8, 17] | Plant response rating, Corn [9, 17] | Plant response rating, Morningglory [12, 17] | Plant response rating, Morningglory [12, 18]
15: Plant response rating, Flood, Rice [1]
25: Plant response rating, Flood, Barnyardgrass [4]
80: Plant response rating, Flood, Sedge, Umbrella [2] | Plant response rating, Flood, Ducksalad [3] | Plant response rating, Velvetleaf [6, 18]
100: Plant response rating, Pigweed [5, 15] | Plant response rating, Pigweed [5, 16] | Plant response rating, Velvetleaf [6, 15] | Plant response rating, Velvetleaf [6, 16] | Plant response rating, Morningglory [12, 16]
30: Plant response rating, Foxtail, Giant [7, 17]
40: Plant response rating, Crabgrass, Large [11, 17]
90: Plant response rating, Pigweed [5, 18] | Plant response rating, Foxtail, Giant [7, 16] | Plant response rating, Barnyardgrass [10, 15] | Plant response rating, Barnyardgrass [10, 16] | Plant response rating, Barnyardgrass [10, 18] | Plant response rating, Crabgrass, Large [11, 16]
70: Plant response rating, Sedge, Umbrella [2, 13] | Plant response rating, Ducksalad [3, 13] | Plant response rating, Foxtail, Giant [7, 18] | Plant response rating, Crabgrass, Large [11, 15] | Plant response rating, Crabgrass, Large [11, 18]
20: Plant response rating, Velvetleaf [6, 17] | Plant response rating, Wheat [8, 16] | Plant response rating, Wheat [8, 18] | Plant response rating, Corn [9, 15] | Plant response rating, Corn [9, 16] | Plant response rating, Corn [9, 18] | Plant response rating, Barnyardgrass [10, 17]
50: Plant response rating, Pigweed [5, 17] | Plant response rating, Morningglory [12, 15]

— patent publication US8952024B2, “Herbicidal pyrimidone derivatives” (E I du Pont de Nemours and Company, priority 2009, dated 2015)
